According to PubChem BioAssay (NCI):
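Cultured in 96-well plates, cells were exposed to test compound for 48 hours across five concentrations. GI50 = concentration required for 50% inhibition of growth. TGI: concentration producing complete growth inhibition.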

Columns and labels:
Assay in all cases: inhibition of tumour cell growth, NCI panel, 48 h
[1] = system: A549 NSCLC
[2] = system: MALME-3M melanoma
[3] = system: SF-268 CNS
[4] = system: SK-MEL-28 melanoma
[5] = system: HOP-62 NSCLC
[6] = system: UO-31 renal
[7] = system: RPMI-8226 leukemia
[8] = system: EKVX NSCLC
[9] = system: MOLT-4 leukemia
[10] = system: NCI/ADR-RES ovarian

Structure (SMILES): CCOC(=O)C(=O)Nc1ccccc1CC
- TGI [1]: > 100 µM
- TGI [2]: > 100 µM
- TGI [3]: > 100 µM
- TGI [4]: > 100 µM
- TGI [5]: > 100 µM
- TGI [6]: > 100 µM
- TGI [7]: > 100 µM
- TGI [8]: > 100 µM
- TGI [9]: > 100 µM

Structure (SMILES): COC(=O)Nc1nc2ccc(C3(c4ccc(F)cc4)OCCO3)cc2[nH]1
- GI50 [1]: 0.417 µM
- TGI [1]: > 100 µM
- GI50 [3]: 2.07 µM
- TGI [3]: > 100 µM
- GI50 [4]: 0.769 µM
- TGI [4]: > 100 µM
- GI50 [5]: 3.24 µM
- TGI [5]: > 100 µM
- GI50 [6]: 3.39 µM
- TGI [6]: > 100 µM
- GI50 [7]: 0.427 µM
- TGI [7]: > 100 µM
- GI50 [9]: 0.573 µM
- TGI [9]: > 100 µM
- GI50 [10]: 0.28 µM
- TGI [10]: > 35.4 µM

Structure (SMILES): CN(C)CCC1(C2=CCCC2)CC/C(=C\c2ccc(Cl)cc2)C1=O (stereo not drawn)
- TGI [1]: 26.9 µM
- TGI [2]: 15.4 µM
- TGI [3]: 26.1 µM
- TGI [4]: 7.4 µM
- TGI [5]: 32.7 µM
- TGI [6]: 18.8 µM
- TGI [7]: 22.4 µM
- TGI [8]: 18.8 µM
- TGI [9]: 6.02 µM

Structure (SMILES): O=C1C2C3C=C4c5ccccc5N(c5ccccc5)C4(C2C(=O)N1c1ccc([N+](=O)[O-])cc1)[C@H]1C(=O)N(c2ccc([N+](=O)[O-])cc2)C(=O)[C@@H]31 (stereo partly drawn)
- TGI [1]: > 100 µM
- TGI [2]: > 100 µM
- TGI [3]: > 100 µM
- TGI [4]: > 100 µM
- TGI [5]: > 100 µM
- TGI [6]: > 100 µM
- TGI [7]: > 100 µM
- TGI [8]: > 100 µM
- TGI [9]: > 100 µM

Structure (SMILES): c1ccc(C2N3CCCCC3[C@@H]3c4[nH]c5ccccc5c4CCN23)nc1 (stereo partly drawn)
- TGI [1]: > 100 µM
- TGI [3]: > 100 µM
- TGI [4]: > 100 µM
- TGI [5]: > 100 µM
- TGI [6]: > 100 µM
- TGI [7]: > 100 µM
- TGI [8]: > 100 µM
- TGI [9]: > 100 µM

Structure (SMILES): Cc1cc(N(CCC#N)CCC#N)ccc1/C=C(\NC(=O)/C=C/c1ccccc1)C(N)=O
- TGI [1]: > 100 µM
- TGI [2]: > 100 µM
- TGI [3]: > 100 µM
- TGI [4]: > 100 µM
- TGI [5]: > 100 µM
- TGI [6]: > 100 µM
- TGI [7]: > 100 µM
- TGI [8]: > 100 µM
- TGI [9]: > 100 µM

Structure (SMILES): CC12OC(C(=O)C13CC3)C1C(=O)c3ccc4c(ccc5ccccc54)c3C(=O)C12 (stereo not drawn)
- GI50 [1]: 45 µM
- TGI [1]: > 100 µM
- GI50 [2]: 14.2 µM
- TGI [2]: 56.6 µM
- GI50 [3]: 26.5 µM
- TGI [3]: 86.1 µM
- GI50 [4]: 66.3 µM
- TGI [4]: > 100 µM
- GI50 [5]: 28.9 µM
- TGI [5]: 99.8 µM
- GI50 [6]: 77.3 µM
- TGI [6]: > 100 µM
- GI50 [8]: 51.3 µM
- TGI [8]: > 100 µM
- GI50 [9]: 28.9 µM
- TGI [9]: > 100 µM
- GI50 [10]: 41.2 µM
- TGI [10]: > 100 µM

Structure (SMILES): CN(Cc1ccccc1)C(=O)c1ccccc1C(=O)O
- TGI [1]: > 100 µM
- TGI [2]: > 100 µM
- TGI [3]: > 100 µM
- TGI [6]: > 100 µM
- TGI [7]: > 100 µM
- TGI [8]: > 100 µM
- TGI [9]: > 100 µM

Structure (SMILES): O=C1c2ccccc2C(=O)C1(O)c1c[nH]c2ccccc12
- TGI [1]: > 100 µM
- TGI [2]: > 100 µM
- TGI [3]: > 100 µM
- TGI [4]: > 100 µM
- TGI [5]: > 100 µM
- TGI [6]: > 100 µM
- TGI [7]: > 100 µM
- TGI [8]: > 100 µM
- TGI [9]: > 100 µM

Structure (SMILES): CC1=[N+]([O-])c2ccccc2C(=O)C1=O
- TGI [1]: > 100 µM
- TGI [2]: > 100 µM
- TGI [3]: > 100 µM
- TGI [4]: > 100 µM
- TGI [5]: > 100 µM
- TGI [6]: > 100 µM
- TGI [7]: > 100 µM
- TGI [8]: > 100 µM
- TGI [9]: > 100 µM
